In patent US20160193206A1, “BET-PROTEIN-INHIBITING DIHYDROPYRIDOPYRAZINONES” (BAYER PHARMA AKTIENGESELLSCHAFT, priority 2012, published 2016):

Key:
[1] = biological target: T1, BRD4 bromo domain 1 [BRD4(1)] (Homo sapiens, UniProt O60885); assay: BRD4(1)/acetylated peptide H4 binding assay (TR-FRET); settings: inhibition of interaction between His6-tagged BRD4(1) (amino acids 67-152) and acetylated histone H4 peptide
T1 construct: N-terminally His6-tagged BRD4(1) (amino acids 67-152); made in house; host or cells: E. coli
Source text: (§1) Protein-Protein Interaction Assay: BRD4/Acetylated Peptide H4 Binding Assay
1. Assay Description for BRD4 Bromo Domain 1 [BRD4(1)]
To assess the BRD4(1) binding strength of the substances described in this application, the ability thereof to inhibit the interaction between BRD4(1) and acetylated histone H4 in a dose-dependent manner was quantified.
(§2) For this purpose, a time-resolved fluorescence resonance energy transfer (TR-FRET) assay was used, which measures the binding between N-terminally His6-tagged BRD4(1) (amino acids 67-152) and a synthetic acetylated histone H4 (Ac-H4) peptide with sequence GRGK(Ac)GGK(Ac)GLGK(Ac)GGAK(Ac)RHGSGSK-biotin. The recombinant BRD4(1) protein produced in-house according to Filippakopoulos et al., Cell, 2012, 149:214-231 was expressed in E. coli and purified by means of (Ni-NTA) affinity and (Sephadex G-75) size exclusion chromatography. The Ac-H4 peptide can be purchased, for example, from Biosyntan (Berlin, Germany).
(§3) In the assay, typically 11 different concentrations of each substance (0.1 nM, 0.33 nM, 1.1 nM, 3.8 nM, 13 nM, 44 nM, 0.15 μM, 0.51 μM, 1.7 μM, 5.9 μM and 20 μM) were analysed as duplicates on the same microtitre plate. For this purpose, 100-fold concentrated solutions in DMSO were prepared by serial dilutions (1:3.4) of a 2 mM stock solution into a clear, 384-well microtitre plate (Greiner Bio-One, Frickenhausen, Germany). From this, 50 nl were transferred into a black test plate (Greiner Bio-One, Frickenhausen, Germany). The test was started by the addition of 2 μl of a 2.5-fold concentrated BRD4(1) solution (final concentration typically 10 nM in the 5 μl of reaction volume) in aqueous assay buffer [50 mM HEPES pH 7.5, 50 mM sodium chloride (NaCl), 0.25 mM CHAPS and 0.05% serum albumin (BSA)] to the substances in the test plate. This was followed by a 10-minute incubation step at 22° C. for the pre-equilibration of putative complexes between BRD4(1) and the substances.
(§4) The mixture was then incubated in the dark at 22° C. for one hour and then at 4° C. for at least 3 hours and for no longer than overnight. The formation of BRD4(1)/Ac-H4 complexes was determined by the measurement of the resonance energy transfer from the streptavidin-Eu cryptate to the anti-6His-XL665 antibody present in the reaction. For this purpose, the fluorescence emission was measured at 620 nm and 665 nm after excitation at 330-350 nm in a TR-FRET measuring instrument, for example a Rubystar or Pherastar (both from BMG Lab Technologies, Offenburg, Germany) or a Viewlux (Perkin-Elmer). The ratio of the emissions at 665 nm and at 622 nm was taken as an indicator of the amount of BRD4(1)/Ac-H4 complexes formed.
(§5) The data (ratios) obtained were normalized, with 0% inhibition corresponding to the mean from the measurements for a set of controls (typically 32 data points) in which all the reagents were present. In these, in place of test substances, 50 nl of DMSO (100%) were used. Inhibition of 100% corresponded to the mean from the measurements for a set of controls (typically 32 data points) in which all the reagents except BRD4(1) were present. The IC50 was determined by regression analysis based on a 4-parameter equation (minimum, maximum, IC50, Hill; Y=max+(min−max)/(1+(X/IC50)Hill).

[2] = biological target: T2, BRD4 bromo domain 2 [BRD4(2)] (Homo sapiens, UniProt O60885); assay: BRD4(2)/acetylated peptide H4 binding assay (TR-FRET); settings: inhibition of interaction between His6-tagged BRD4(2) (amino acids 357-445) and acetylated histone H4 peptide
T2 construct: N-terminally His6-tagged BRD4(2) (amino acids 357-445); made in house; host or cells: E. coli
Source text: as §1
2. Assay Description for BRD4 Bromo Domain 2 [BRD4(2)]
To assess the BRD4(2) binding strength of the substances described in this application, the ability thereof to inhibit the interaction between BRD4(2) and acetylated histone H4 in a dose-dependent manner was quantified.
as §2, with “BRD4(2)” for “BRD4(1)”, “357-445)” for “67-152)”, “SGRGK(Ac)GGK(Ac)GLGK(Ac)GGAK(Ac)RHRKVLRDNGSGSK-biotin.” for “GRGK(Ac)GGK(Ac)GLGK(Ac)GGAK(Ac)RHGSGSK-biotin.”
as §3, with “concentrated BRD4(2)” for “concentrated BRD4(1)”, “typically 100” for “typically 10”, “chloride (NaCl); 50 mM potassium fluoride (KF);” for “chloride (NaCl),”, “between BRD4(2)” for “between BRD4(1)”
as §4, with “BRD4(2)/Ac-H4” for “BRD4(1)/Ac-H4”, “chelate” for “cryptate”
as §5, with “BRD4(2)” for “BRD4(1)”

IC50 [1] [nM]	IC50 [2] [nM]	Structure (SMILES)
218	102	COc1cc(C(=O)N2CCC(F)CC2)ccc1Nc1ccc2c(n1)N(Cc1ccccc1)[C@H](C)C(=O)N2C [Example 43, (3R)-4-Benzyl-6-({4-[(4-fluoropiperidin-1-yl)carbonyl]-2-methoxyphenyl}amino)-1,3-dimethyl-3,4-dihydropyrido[2,3-b]pyrazin-2(1H)-one]
368	283	C[C@@H]1C(=O)N(C)c2ccc(Nc3ccc(C(=O)N[C@H]4CC[C@H](N5CCN(CC6CC6)CC5)CC4)cc3)nc2N1C1CCCCCC1 [Example 44, 4-{[(3R)-4-Cycloheptyl-1,3-dimethyl-2-oxo-1,2,3,4-tetrahydropyrido[2,3-b]pyrazin-6-yl]amino}-N-{trans-4-[4-(cyclopropylmethyl)piperazin-1-yl]cyclohexyl}benzamide]
201	112	COc1cc(C(=O)NCc2ccccn2)ccc1Nc1ccc2c(n1)N(C1CCOCC1)[C@H](C)C(=O)N2C [Example 47, 4-{[(3R)-1,3-Dimethyl-2-oxo-4-(tetrahydro-2H-pyran-4-yl)-1,2,3,4-tetrahydropyrido[2,3-b]pyrazin-6-yl]amino}-3-methoxy-N-(pyridin-2-ylmethyl)benzamide]
114	317	C[C@@H]1C(=O)N(C)c2ccc(Nc3ccc(C(=O)NCCc4cccnc4)cc3)nc2N1C1CCOCC1 [Example 49, 4-{[(3R)-1,3-Dimethyl-2-oxo-4-(tetrahydro-2H-pyran-4-yl)-1,2,3,4-tetrahydropyrido[2,3-b]pyrazin-6-yl]amino}-N-[2-(pyridin-3-yl)ethyl]benzamide]
166	299	C[C@@H]1C(=O)N(C)c2ccc(Nc3ccc(C(=O)NC4CCC(N5CCC(F)(F)CC5)CC4)cc3)nc2N1C1CCOCC1 (some centres unmarked) [Example 52]
357	354	Cc1cc(C(=O)NC2CCN(C)CC2)ccc1Nc1ccc2c(n1)N(C1CCOCC1)[C@H](C)C(=O)N2C [Example 54, 4-{[(3R)-1,3-Dimethyl-2-oxo-4-(tetrahydro-2H-pyran-4-yl)-1,2,3,4-tetrahydropyrido[2,3-b]pyrazin-6-yl]amino}-3-methyl-N-(1-methylpiperidin-4-yl)benzamide]
139	242	C[C@@H]1C(=O)N(C)c2ccc(Nc3ccc(C(=O)N4CCN(C)CC4)cc3)nc2N1C1CCOCC1 [Example 56, (3R)-1,3-Dimethyl-6-({4-[(4-methylpiperazin-1-yl)carbonyl]phenyl}amino)-4-(tetrahydro-2H-pyran-4-yl)-3,4-dihydropyrido[2,3-b]pyrazin-2(1H)-one]
533	323	COc1cc(C(=O)N[C@H]2CC[C@H](NC(=O)OC(C)(C)C)CC2)ccc1Nc1ccc2c(n1)N(C1CCOCC1)[C@H](C)C(=O)N2C [Example 59, tert-Butyl {trans-4-[(4-{[(3R)-1,3-dimethyl-2-oxo-4-(tetrahydro-2H-pyran-4-yl)-1,2,3,4-tetrahydropyrido[2,3-b]pyrazin-6-yl]amino}-3-methoxybenzoyl)amino]cyclohexyl}carbamate]
339	212	COc1cc(C(=O)NC2CCC(O)CC2)ccc1Nc1ccc2c(n1)N(C1CCOCC1)[C@H](C)C(=O)N2C (stereo partly drawn) [Example 60, 4-{[(3R)-1,3-Dimethyl-2-oxo-4-(tetrahydro-2H-pyran-4-yl)-1,2,3,4-tetrahydropyrido[2,3-b]pyrazin-6-yl]amino}-N-(4-hydroxycyclohexyl)-3-methoxybenzamide]
262	206	Cc1cc(C(=O)NCCN(C)C)ccc1Nc1ccc2c(n1)N(C1CCOCC1)[C@H](C)C(=O)N2C [Example 63, N-[2-(Dimethylamino)ethyl]-4-{[(3R)-1,3-dimethyl-2-oxo-4-(tetrahydro-2H-pyran-4-yl)-1,2,3,4-tetrahydropyrido[2,3-b]pyrazin-6-yl]amino}-3-methylbenzamide]
234	120	COc1cc(C(=O)N2CCN(C3CC3)CC2)ccc1Nc1ccc2c(n1)N(C1CCOCC1)[C@H](C)C(=O)N2C [Example 65, (3R)-6-({4-[(4-Cyclopropylpiperazin-1-yl)carbonyl]-2-methoxyphenyl}amino)-1,3-dimethyl-4-(tetrahydro-2H-pyran-4-yl)-3,4-dihydropyrido[2,3-b]pyrazin-2(1H)-one]
961	445	C[C@@H]1C(=O)N(C)c2ccc(Nc3ccc(C(=O)NC4CCC(N5CCC(F)(F)CC5)CC4)cc3)nc2N1C1CCCCC1 (stereo partly drawn) [Example 71, 4-{[(3R)-4-Cyclohexyl-1,3-dimethyl-2-oxo-1,2,3,4-tetrahydropyrido[2,3-b]pyrazin-6-l]amino}-N-[4-(4,4-difluoropiperidin-1-yl)cyclohexyl]benzamide]
273	196	COc1cc(C(=O)N2CC3(COC3)C2)ccc1Nc1ccc2c(n1)N(C1CCCCC1)[C@H](C)C(=O)N2C [Example 73, (3R)-4-Cyclohexyl-6-{[2-methoxy-4-(2-oxa-6-azaspiro[3.3]hept-6-ylcarbonyl)phenyl]amino}-1,3-dimethyl-3,4-dihydropyrido[2,3-b]pyrazin-2(1H)-one]
